Experimental data reported in the supplement of paper PMC5303821, “Major sulfonate transporter Soa1 in Saccharomyces cerevisiae and considerable substrate diversity in its fungal family” (Nature Communications, 2017).
Where a name gives a salt, the structure may show the parent alone.

Key:
Details in all cases: sulfur source concentration 200 µM; S. cerevisiae S288C/BY sul1Δ sul2Δ soa1Δ with transporter ortholog inserted at SOA1 locus; sulfur-free B medium, 4% glucose, pH 6.5, sole sulfur source
[1] = system: Ogataea parapolymorpha_XP_013935289; assay: maximal growth rate with compound as sole sulfur source (OD600 per h); higher = better growth / uptake of the sulfur source
Experimental: (§1)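 S. cerevisiae sul1Δ sul2Δ soa1Δ strains expressing 20 fungal SOA1 orthologs (or no transporter, 'soa1 del') were grown in liquid sulfur-free B medium, 4% glucose, pH 6.5 (7 mM K2HPO4). The strains were sulfur-starved for 3 days beforehand. Each sulfur compound was the sole sulfur source at 200 µM (sulfate also at 40 mM). OD600 curves of duplicate cultures were averaged and fitted (logistic / Richards, GroFit) to give maximal growth rate, maximal density and lag phase; temperature not stated.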

[2] = system: Saccharomyces uvarum_SOA2; assay: as above
Experimental: as §1

[3] = system: Aspergillus nidulans (IAM 2006)_astA; assay: as above
Experimental: as §1

[4] = system: Aspergillus nidulans_XP_681611; assay: as above
Experimental: as §1

[5] = system: Saccharomyces eubayanus_SOA2; assay: as above
Experimental: as §1

[6] = system: Fusarium oxysporum_ENH65823; assay: as above
Experimental: as §1

[7] = system: Aspergillus nidulans_XP_660670; assay: as above
Experimental: as §1

[8] = system: Ogataea parapolymorpha_XP_013932458; assay: as above
Experimental: as §1

[9] = system: Metarhizium robertsii_XP_007823832; assay: as above
Experimental: as §1

[10] = system: Metarhizium robertsii_XP_007822519; assay: as above
Experimental: as §1

[11] = system: Aspergillus nidulans_XP_661711; assay: as above
Experimental: as §1

[12] = system: soa1 del; assay: as above
Experimental: as §1

[13] = system: Saccharomyces cerevisiae_SOA1; assay: as above
Experimental: as §1

[14] = system: Aspergillus nidulans_XP_661733; assay: as above
Experimental: as §1

[15] = system: Aspergillus nidulans_XP_660563; assay: as above
Experimental: as §1

[16] = system: Saccharomyces eubayanus_SOA1; assay: as above
Experimental: as §1

[17] = system: Saccharomyces uvarum_SOA1; assay: as above
Experimental: as §1

[18] = system: Ogataea parapolymorpha_XP_013936897; assay: as above
Experimental: as §1

[19] = system: Metarhizium robertsii_XP_007821441; assay: as above
Experimental: as §1

[20] = system: Aspergillus nidulans_CBF80346; assay: as above
Experimental: as §1

[21] = system: Aspergillus nidulans_CBF74694; assay: as above
Experimental: as §1

[22] = system: Ogataea parapolymorpha_XP_013935289; assay: maximal culture density with compound as sole sulfur source (OD600); higher = better growth
Experimental: as §1

[23] = system: Saccharomyces uvarum_SOA2; assay: as above
Experimental: as §1

[24] = system: Aspergillus nidulans (IAM 2006)_astA; assay: as above
Experimental: as §1

[25] = system: Aspergillus nidulans_XP_681611; assay: as above
Experimental: as §1

[26] = system: Saccharomyces eubayanus_SOA2; assay: as above
Experimental: as §1

[27] = system: Aspergillus nidulans_XP_660670; assay: as above
Experimental: as §1

[28] = system: Ogataea parapolymorpha_XP_013932458; assay: as above
Experimental: as §1

[29] = system: Metarhizium robertsii_XP_007823832; assay: as above
Experimental: as §1

[30] = system: Metarhizium robertsii_XP_007822519; assay: as above
Experimental: as §1

[31] = system: Aspergillus nidulans_XP_661711; assay: as above
Experimental: as §1

[32] = system: soa1 del; assay: as above
Experimental: as §1

[33] = system: Saccharomyces cerevisiae_SOA1; assay: as above
Experimental: as §1

[34] = system: Aspergillus nidulans_XP_661733; assay: as above
Experimental: as §1

[35] = system: Aspergillus nidulans_XP_660563; assay: as above
Experimental: as §1

[36] = system: Saccharomyces eubayanus_SOA1; assay: as above
Experimental: as §1

[37] = system: Saccharomyces uvarum_SOA1; assay: as above
Experimental: as §1

[38] = system: Ogataea parapolymorpha_XP_013936897; assay: as above
Experimental: as §1

[39] = system: Metarhizium robertsii_XP_007821441; assay: as above
Experimental: as §1

[40] = system: Aspergillus nidulans_CBF80346; assay: as above
Experimental: as §1

[41] = system: Aspergillus nidulans_CBF74694; assay: as above
Experimental: as §1

[42] = system: Ogataea parapolymorpha_XP_013935289; assay: lag phase before growth; higher = slower start of growth
Experimental: as §1

[43] = system: Saccharomyces uvarum_SOA2; assay: as above
Experimental: as §1

[44] = system: Saccharomyces cerevisiae_SOA1; assay: as above
Experimental: as §1

[45] = system: Aspergillus nidulans_XP_661733; assay: as above
Experimental: as §1

[46] = system: Fusarium oxysporum_ENH65823; assay: maximal culture density with compound as sole sulfur source (OD600); higher = better growth
Experimental: as §1

[47] = system: Aspergillus nidulans (IAM 2006)_astA; assay: lag phase before growth; higher = slower start of growth
Experimental: as §1

[48] = system: Metarhizium robertsii_XP_007823832; assay: as above
Experimental: as §1

In the case of `O=C(O)CS(=O)(=O)O` [Sulfoacetic acid], the maximal growth rate [1] is reported as 0.0296, the maximal growth rate [2] is reported as 0.0314 and the maximal growth rate [3] is reported as 0.0131. The maximal growth rate [4] was 0.00636, the maximal growth rate [5] was 0.00305 and the maximal growth rate [6] was 0.00684. It also gave a maximal growth rate [7] of 0.00401, a maximal growth rate [8] of 0.00439 and a maximal growth rate [9] of 0.0177. For the same molecule, the maximal growth rate [10] was 0.00308, the maximal growth rate [11] was 0.00399 and the maximal growth rate [12] was 0.00385. For the same molecule, the maximal growth rate [13] was 0.0325, the maximal growth rate [14] was 0.0174 and the maximal growth rate [15] was 0.00621. For the same molecule, the maximal growth rate [16] was 0.0033, the maximal growth rate [17] was 0.00282 and the maximal growth rate [18] was 0.00474. The maximal growth rate [19] was 0.00346, the maximal growth rate [20] was 0.00462 and the maximal growth rate [21] was 0.00286. For the same molecule, the maximal culture density [22] was 1.33, the maximal culture density [23] was 1.01 and the maximal culture density [24] was 0.731. It also gave a maximal culture density [25] of 0.3, a maximal culture density [26] of 0.211 and a maximal culture density [27] of 0.222. The maximal culture density [28] was 0.251, the maximal culture density [29] was 0.712 and the maximal culture density [30] was 0.282. It also gave a maximal culture density [31] of 0.223, a maximal culture density [32] of 0.216 and a maximal culture density [33] of 1.28. For the same molecule, the maximal culture density [34] was 0.777, the maximal culture density [35] was 0.308 and the maximal culture density [36] was 0.274. It also gave a maximal culture density [37] of 0.391, a maximal culture density [38] of 0.275 and a maximal culture density [39] of 0.225. For the same molecule, the maximal culture density [40] was 0.223, the maximal culture density [41] was 0.183 and the “lag phase before growth” value [42] was 8.28 h. The “lag phase before growth” value [43] was 38.2 h, the “lag phase before growth” value [44] was 9.42 h and the “lag phase before growth” value [45] was 26.9 h.

`C[N+](C)(C)CCOS(=O)(=O)[O-]` [Choline sulfate] gave a maximal growth rate [1] of 0.072, a maximal growth rate [2] of 0.00318 and a maximal growth rate [3] of 0.0987. The maximal growth rate [4] was 0.0057, the maximal growth rate [5] was 0.00319 and the maximal growth rate [6] was 0.00381. The maximal growth rate [7] was 0.00346, the maximal growth rate [8] was 0.00365 and the maximal growth rate [9] was 0.0809. It also gave a maximal growth rate [10] of 0.00309, a maximal growth rate [11] of 0.00345 and a maximal growth rate [12] of 0.00393. It also gave a maximal growth rate [13] of 0.0576, a maximal growth rate [14] of 0.00364 and a maximal growth rate [15] of 0.0061. The maximal growth rate [16] was 0.0058, the maximal growth rate [17] was 0.00649 and the maximal growth rate [18] was 0.00441. For the same molecule, the maximal growth rate [19] was 0.00312, the maximal growth rate [20] was 0.00384 and the maximal growth rate [21] was 0.00254. It also gave a maximal culture density [22] of 1.6, a maximal culture density [23] of 0.237 and a maximal culture density [24] of 1.61. It also gave a maximal culture density [25] of 0.352, a maximal culture density [26] of 0.202 and a maximal culture density [46] of 0.284. It also gave a maximal culture density [27] of 0.282, a maximal culture density [28] of 0.288 and a maximal culture density [29] of 1.61. It also gave a maximal culture density [30] of 0.238, a maximal culture density [31] of 0.282 and a maximal culture density [32] of 0.22. For the same molecule, the maximal culture density [33] was 1.59, the maximal culture density [34] was 0.257 and the maximal culture density [35] was 0.381. The maximal culture density [36] was 0.49, the maximal culture density [37] was 0.69 and the maximal culture density [38] was 0.335. For the same molecule, the maximal culture density [39] was 0.25, the maximal culture density [40] was 0.245 and the maximal culture density [41] was 0.215. For the same molecule, the “lag phase before growth” value [42] was 19.4 h, the “lag phase before growth” value [47] was 6.39 h and the “lag phase before growth” value [48] was 8.32 h. For the same molecule, the “lag phase before growth” value [44] was 28.7 h.
